Measured values: US8063225B2, “Tricyclic compound derivatives useful in the treatment of neoplastic diseases, inflammatory disorders and immunomodulatory disorders” (Chembridge Corporation, priority 2006, dated 2011)

Experiments:
Assay type in all cases: cell-based
H929 (multiple myeloma) = assay: Cell proliferation inhibition, Cell Titer-Glo, H929; settings: Homo sapiens, NCI-H929; cell proliferation assay, H929 cells
How it was run: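 Cells seeded at 2500-5000 per well with serially diluted compound for typically 3 days. Viable cells measured by ATP luminescence (Cell Titer-Glo); IC50 from proliferation-inhibition curves.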

Karpas-299 = assay: Cell proliferation inhibition, Cell Titer-Glo, Karpas-299; settings: Homo sapiens; cell proliferation assay, Karpas-299 cells
How it was run: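 Karpas 299 cells were seeded into white, clear-bottomed 384-well culture plates at 2500-5000 cells per well and exposed to serial dilutions of test compounds for about 3 days. Viable cell numbers were then measured with the Cell Titer-Glo Luminescent Cell Viability Assay (Promega), which detects total ATP, and IC50 values for proliferation inhibition were derived.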

K562 = assay: Cell proliferation inhibition, Cell Titer-Glo, K562; settings: Homo sapiens; cell proliferation assay, K562 cells
How it was run: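 K562 cells were seeded at 2500-5000 cells per well in white, clear-bottomed 384-well culture plates and treated with dilutions of test compounds for typically 3 days. Viable cells were quantified with the Cell Titer-Glo Luminescent Cell Viability Assay (Promega), which measures total ATP, read on a luminescence plate reader to derive IC50 values for proliferation inhibition.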

Row | IC50 (H929 (multiple myeloma)) | IC50 (Karpas-299) | IC50 (K562) | Compound
1 | 5 to 15 µM | > 15 µM | > 15 µM | Cc1cc(C)c(OC[C@H](O)CNc2cc[nH]c(=O)c2-c2nc3cc4c(cc3[nH]2)C(=O)N(C2CCN(C)CC2)C4=O)c(C)c1 [compound 98]
2 |  | 0.5 to 5 µM | > 15 µM | Cc1ccc(Cl)c(C)c1OC[C@H](O)CNc1cc[nH]c(=O)c1-c1nc2cc3c(cc2[nH]1)C(=O)N(C1CCN(C)CC1)C3=O [compound 111]
3 |  | > 15 µM | > 15 µM | O=C1c2cc3nc(-c4c(NC[C@@H](O)c5cccc(Cl)c5)cc[nH]c4=O)[nH]c3cc2C(=O)N1CCc1ccncc1 [compound 28]
4 | 0.5 to 5 µM | > 15 µM | > 15 µM | Cc1ccc(OCC(O)CNc2cc[nH]c(=O)c2-c2nc3cc4c(cc3[nH]2)C(=O)N(CC2CCN(CCO)CC2)C4=O)c(C)c1 (stereo not drawn) [compound 37]
5 | 5 to 15 µM | > 15 µM | > 15 µM | CN1CCC(N2C(=O)c3cc4nc(-c5c(NC[C@@H](O)COc6cccc(Cl)c6F)cc[nH]c5=O)[nH]c4cc3C2=O)CC1 [compound 96]
6 |  | 5 to 15 µM | 0.5 to 5 µM | O=C1c2cc3nc(-c4c(NC[C@@H](O)c5cccc(Cl)c5)cc[nH]c4=O)[nH]c3cc2C(=O)N1C[C@@H]1CCCO1 [compound 29]
7 | 0.5 to 5 µM | 5 to 15 µM | > 15 µM | CN1CCC(N2C(=O)c3cc4nc(-c5c(NC[C@@H](O)COc6cccc(OC(F)(F)C(F)F)c6)cc[nH]c5=O)[nH]c4cc3C2=O)CC1 [compound 91]
8 | 5 to 15 µM | > 15 µM | > 15 µM | Cc1ccc(OC[C@@H](O)CNc2cc[nH]c(=O)c2-c2nc3cc4c(cc3[nH]2)C(=O)N([C@@H]2CCN(C)C2)C4=O)c(C)c1 [compound 107]
9 |  |  | 5 to 15 µM | CC(C)(CO)CN1C(=O)c2cc3nc(-c4c(NC[C@@H](O)c5cccc(Cl)c5)cc[nH]c4=O)[nH]c3cc2C1=O [compound 26]
10 |  | > 15 µM | > 15 µM | Cc1ccc(OC[C@H](O)CNc2cc[nH]c(=O)c2-c2nc3cc4c(cc3[nH]2)C(=O)N(C2CCN(C)CC2)C4=O)cc1Cl [compound 99]
11 | 5 to 15 µM | > 15 µM | 5 to 15 µM | Cc1ccc(OC[C@@H](O)CNc2cc[nH]c(=O)c2-c2nc3cc4c(cc3[nH]2)C(=O)N([C@H]2CCN(C)C2)C4=O)c(C)c1 [compound 106]
12 | 5 to 15 µM | 5 to 15 µM | 5 to 15 µM | CN1CCC(N2C(=O)c3cc4nc(-c5c(NC[C@@H](O)COc6cccc7ccccc67)cc[nH]c5=O)[nH]c4cc3C2=O)CC1 [compound 87]
13 |  | 5 to 15 µM | 5 to 15 µM | CN1CCC(N2C(=O)c3cc4nc(-c5c(N[C@H](CO)Cc6c[nH]cn6)cc[nH]c5=O)[nH]c4cc3C2=O)CC1 [compound 2]
14 |  | > 15 µM | 5 to 15 µM | Cc1ccc(OC[C@@H](O)CNc2cc[nH]c(=O)c2-c2nc3cc4c(cc3[nH]2)C(=O)N(C2CCN(C)CC2)C4=O)c(C)c1 [compound 64]
15 |  | > 15 µM | > 15 µM | Cc1cc(C)n(C[C@H](O)CNc2cc[nH]c(=O)c2-c2nc3cc4c(cc3[nH]2)C(=O)N(C2CCN(C)CC2)C4=O)n1 [compound 92]
16 | 5 to 15 µM |  |  | COc1cccc(OCC(O)CNc2cc[nH]c(=O)c2-c2nc3cc4c(cc3[nH]2)C(=O)N(C2CCN(C)CC2)C4=O)c1 (stereo not drawn) [compound 6]
17 | 5 to 15 µM | > 15 µM | > 15 µM | Cc1ncsc1CCN1C(=O)c2cc3nc(-c4c(NC[C@@H](O)c5cccc(Cl)c5)cc[nH]c4=O)[nH]c3cc2C1=O [compound 32]
18 | 5 to 15 µM | 0.5 to 5 µM | 5 to 15 µM | CN1CCC(N2C(=O)c3cc4nc(-c5c(NC[C@@H](O)COc6cccc(-c7ccccc7)c6)cc[nH]c5=O)[nH]c4cc3C2=O)CC1 [compound 89]

Row | Compound | IC50 (H929 (multiple myeloma)) | IC50 (Karpas-299) | IC50 (K562)
19 | O=C1c2cc3nc(-c4c(NC[C@@H](O)c5cccc(Cl)c5)cc[nH]c4=O)[nH]c3cc2C(=O)N1[C@@H]1CN2CCC1CC2 [compound 33] |  | > 15 µM | 0.5 to 5 µM
20 | O=C1c2cc3nc(-c4c(NC[C@@H](O)c5cccc(Cl)c5)cc[nH]c4=O)[nH]c3cc2C(=O)N1[C@H]1CN2CCC1CC2 [compound 34] | 5 to 15 µM | > 15 µM | > 15 µM
